Each structure is given as a SMILES string. Values after ≈ are worked out from the molar mass of the structure shown.

This assay deals with Enterococcus faecalis ATCC 29212. The assay can be described thus: MIC against Enterococcus faecalis ATCC 29212. The settings on record: ATCC29212; Enterococcus faecalis ATCC 29212; read-out: MICs against Enterococcus faecalis, Activity. The format is cell-based. The protocol:
Institute. Methods for Dilution Antimicrobial Susceptibility Tests for Bacteria That Grow Aerobically; Approved Standard—Seventh Edition. Document M7-A7. CLSI, Wayne, Pa., 2006; Clinical Laboratories and Standards Institute. Methods for Antimicrobial Susceptibility Testing of Anaerobic Bacteria; Approved Standard—Sixth Edition. Document M11-A6. CLSI, Wayne, Pa., 2004).
Compounds of this invention were tested for antimicrobial activity by susceptibility testing in liquid or on solid media. MICs for compounds against each strain were determined by the broth microdilution or agar dilution method according to the guidelines of the Clinical Laboratories and Standards Institute, formerly the National Committee for Clinical Laboratory Standards (Clinical Laboratories and Standards Institute. Methods for Dilution Antimicrobial Susceptibility Tests for Bacteria That Grow Aerobically; Approved Standard—Seventh Edition. Document M7-A7. CLSI, Wayne, Pa., 2006; Clinical Laboratories and Standards Institute. Methods for Antimicrobial Susceptibility Testing of Anaerobic Bacteria; Approved Standard—Sixth Edition. Document M11-A6. CLSI, Wayne, Pa., 2004).
Take `CCNC(=O)Nc1nc2cc(Br)cc(-c3ccc(N)nc3)c2s1` [Example 1, 1-[7-(6-Amino-pyridin-3-yl)-5-bromo-benzothiazol-2-yl]-3-ethyl-urea]: the MIC lay within 2 to 16 µg/mL (≈ 5.1 to 40.8 µM).

Take `CCNC(=O)Nc1nc2cc(Br)cc(-c3cccnc3)c2s1` [Example 2, 1-(5-Bromo-7-pyridin-3-yl-benzothiazol-2-yl)-3-ethyl-urea]: the MIC fell in the range of 2 to 16 µg/mL (≈ 5.3 to 42.4 µM).

In the case of `CCNC(=O)Nc1nc2cc(Br)cc(-c3cnn(C)c3)c2s1` [Example 5, 1-[5-Bromo-7-(1-methyl-1H-pyrazol-4-yl)-benzothiazol-2-yl]-3-ethyl-urea], the MIC fell in the range of 2 to 16 µg/mL (≈ 5.26 to 42.1 µM).

As to `CCNC(=O)Nc1nc2cc(-c3cnn(C)c3)cc(Br)c2s1` [Example 6, 1-[7-Bromo-5-(1-methyl-1H-pyrazol-4-yl)-benzothiazol-2-yl]-3-ethyl-urea], the MIC was 0.25 to 1 µg/mL (≈ 0.657 to 2.63 µM).

Take `CCNC(=O)Nc1nc2cc(-c3cnn(C)c3)cc(-c3cnn(C)c3)c2s1` [Example 7, 1-[5,7-Bis-(1-methyl-1H-pyrazol-4-yl)-benzothiazol-2-yl]-3-ethyl-urea]: the MIC is 0.25 to 1 µg/mL (≈ 0.655 to 2.62 µM).

`CCNC(=O)Nc1nc2cc(I)cc(-c3cccnc3)c2s1` [Example 8, 1-Ethyl-3-(5-iodo-7-pyridin-3-yl-benzothiazol-2-yl)-urea]: the MIC is 2 to 16 µg/mL (≈ 4.71 to 37.7 µM).

Turning to `CCNC(=O)Nc1nc2cc(-c3cnccn3)cc(-c3cnccn3)c2s1` [Example 10, 1-(5,7-Di-pyrazin-2-yl-benzothiazol-2-yl)-3-ethyl-urea], the MIC is less than 0.25 µg/mL.

As for `CCNC(=O)Nc1nc2cc(-c3cccnc3)cc(-c3cccn3C)c2s1` [Example 11, 1-Ethyl-3-[7-(1-methyl-1H-pyrrol-2-yl)-5-pyridin-3-yl-benzothiazol-2-yl]-urea], the MIC lay within 0.25 to 1 µg/mL (≈ 0.662 to 2.65 µM).

In the case of `CCNC(=O)Nc1nc2cc(-n3cccn3)cc(-c3cccnc3)c2s1` [Example 12, 1-Ethyl-3-(5-pyrazol-1-yl-7-pyridin-3-yl-benzothiazol-2-yl)-urea], the MIC was in the range of 2 to 16 µg/mL (≈ 5.49 to 43.9 µM).

As to `CCNC(=O)Nc1nc2cc(-c3cncnc3)cc(-c3cccnc3)c2s1` [Example 13, 1-Ethyl-3-(7-pyridin-3-yl-5-pyrimidin-5-yl-benzothiazol-2-yl)-urea], the MIC lay within 0.25 to 1 µg/mL (≈ 0.664 to 2.66 µM).

In the case of `CCNC(=O)Nc1nc2cc(-c3cnc(N)nc3)cc(-c3cccnc3)c2s1` [Example 14, 1-[5-(2-Amino-pyrimidin-5-yl)-7-pyridin-3-yl-benzothiazol-2-yl]-3-ethyl-urea], the MIC fell in the range of 0.25 to 1 µg/mL (≈ 0.639 to 2.55 µM).

Take `CCNC(=O)Nc1nc2cc(-c3cnc(OC)nc3)cc(-c3cccnc3)c2s1` [Example 15, 1-Ethyl-3-[5-(2-methoxy-pyrimidin-5-yl)-7-pyridin-3-yl-benzothiazol-2-yl]-urea]: the MIC lay within 0.25 to 1 µg/mL (≈ 0.615 to 2.46 µM).

As to `CCNC(=O)Nc1nc2cc(-c3ccc(O)nc3)cc(-c3cccnc3)c2s1` [Example 16, 1-Ethyl-3-[5-(6-hydroxy-pyridin-3-yl)-7-pyridin-3-yl-benzothiazol-2-yl]-urea], the MIC fell in the range of 2 to 16 µg/mL (≈ 5.11 to 40.9 µM).

As to `CCNC(=O)Nc1nc2cc(-c3ccc(N)nc3)cc(-c3cccnc3)c2s1` [Example 17, 1-[5-(6-Amino-pyridin-3-yl)-7-pyridin-3-yl-benzothiazol-2-yl]-3-ethyl-urea], the MIC was in the range of 0.25 to 1 µg/mL (≈ 0.64 to 2.56 µM).

Consider `CCNC(=O)Nc1nc2cc(-c3ccc(CO)cc3)cc(-c3cccnc3)c2s1` [Example 18, 1-Ethyl-3-[5-(4-hydroxymethyl-phenyl)-7-pyridin-3-yl-benzothiazol-2-yl]-urea], for which the MIC was 2 to 16 µg/mL (≈ 4.94 to 39.6 µM).

Consider `CCNC(=O)Nc1nc2cc(-c3ccc(CO)nc3)cc(-c3cccnc3)c2s1` [Example 19, 1-Ethyl-3-[5-(6-hydroxymethyl-pyridin-3-yl)-7-pyridin-3-yl-benzothiazol-2-yl]-urea], for which the MIC fell in the range of 0.25 to 1 µg/mL (≈ 0.617 to 2.47 µM).

Regarding `CCNC(=O)Nc1nc2cc(-c3ccc(NC(C)=O)nc3)cc(-c3cccnc3)c2s1` [Example 20, N-{5-[2-(3-Ethyl-ureido)-7-pyridin-3-yl-benzothiazol-5-yl]-pyridin-2-yl}-acetamide], the MIC lay in the range of 0.25 to 1 µg/mL (≈ 0.578 to 2.31 µM).

Take `CCNC(=O)Nc1nc2cc(-c3ccc(CN4CCOCC4)cc3)cc(-c3cccnc3)c2s1` [Example 21, 1-Ethyl-3-[5-(4-morpholin-4-ylmethyl-phenyl)-7-pyridin-3-yl-benzothiazol-2-yl]-urea]: the MIC fell in the range of 2 to 16 µg/mL (≈ 4.22 to 33.8 µM).

On to `CCNC(=O)Nc1nc2cc(-c3ccc4nccn4c3)cc(-c3cccnc3)c2s1` [Example 22, 1-Ethyl-3-(5-imidazo[1,2-a]pyridin-6-yl-7-pyridin-3-yl-benzothiazol-2-yl)-urea], for which the MIC was in the range of 0.25 to 1 µg/mL (≈ 0.603 to 2.41 µM).

On to `CCNC(=O)Nc1nc2cc(-c3ccc(N4CCN(C)CC4)nc3)cc(-c3cccnc3)c2s1` [Example 23, 1-Ethyl-3-{5-[6-(4-methyl-piperazin-1-yl)-pyridin-3-yl]-7-pyridin-3-yl-benzothiazol-2-yl}-urea], for which the MIC was 2 to 16 µg/mL (≈ 4.22 to 33.8 µM).

With `CCNC(=O)Nc1nc2cc(-c3cncc(C#N)c3)cc(-c3cccnc3)c2s1` [Example 24, 1-[5-(5-Cyano-pyridin-3-yl)-7-pyridin-3-yl-benzothiazol-2-yl]-3-ethyl-urea], the MIC is 0.25 to 1 µg/mL (≈ 0.624 to 2.5 µM).

For `CCNC(=O)Nc1nc2cc(-c3cnc(N(C)C)nc3)cc(-c3cccnc3)c2s1` [Example 25, 1-[5-(2-Dimethylamino-pyrimidin-5-yl)-7-pyridin-3-yl-benzothiazol-2-yl]-3-ethyl-urea], the MIC fell in the range of 0.25 to 1 µg/mL (≈ 0.596 to 2.38 µM).

`CCNC(=O)Nc1nc2cc(-c3ccc(C(=O)OC)nc3)cc(-c3cccnc3)c2s1` [Example 26, 5-[2-(3-Ethyl-ureido)-7-pyridin-3-yl-benzothiazol-5-yl]-pyridine-2-carboxylic acid methyl ester]: the MIC is 0.25 to 1 µg/mL (≈ 0.577 to 2.31 µM).

Consider `CCNC(=O)Nc1nc2cc(-c3ccc(C#N)nc3)cc(-c3cccnc3)c2s1` [Example 27, 1-[5-(6-Cyano-pyridin-3-yl)-7-pyridin-3-yl-benzothiazol-2-yl]-3-ethyl-urea], for which the MIC was less than 0.25 µg/mL.

As to `CCNC(=O)Nc1nc2cc(-c3cccc(F)c3)cc(-c3cccnc3)c2s1` [Example 28, 1-Ethyl-3-[5-(3-fluoro-phenyl)-7-pyridin-3-yl-benzothiazol-2-yl]-urea], the MIC was 0.25 to 1 µg/mL (≈ 0.637 to 2.55 µM).

For the compound `CCNC(=O)Nc1nc2cc(-c3ccc(OC)nc3)cc(-c3cccnc3)c2s1` [Example 29, 1-Ethyl-3-[5-(6-methoxy-pyridin-3-yl)-7-pyridin-3-yl-benzothiazol-2-yl]-urea], the MIC lay within 0.25 to 1 µg/mL (≈ 0.617 to 2.47 µM).

`CCNC(=O)Nc1nc2cc(-c3ccncc3)cc(-c3cccnc3)c2s1` [Example 30, 1-Ethyl-3-(5-pyridin-4-yl-7-pyridin-3-yl-benzothiazol-2-yl)-urea]: the MIC lay within 0.25 to 1 µg/mL (≈ 0.666 to 2.66 µM).

On to `CCNC(=O)Nc1nc2cc(-c3cncc(OC)c3)cc(-c3cccnc3)c2s1` [Example 31, 1-Ethyl-3-[5-(5-methoxy-pyridin-3-yl)-7-pyridin-3-yl-benzothiazol-2-yl]-urea], for which the MIC was in the range of 0.25 to 1 µg/mL (≈ 0.617 to 2.47 µM).

As for `CCNC(=O)Nc1nc2cc(-c3cnc(C#N)nc3)cc(-c3cccnc3)c2s1` [Example 32, 1-[5-(2-Cyano-pyrimidin-5-yl)-7-pyridin-3-yl-benzothiazol-2-yl]-3-ethyl-urea], the MIC is 2 to 16 µg/mL (≈ 4.98 to 39.9 µM).

Take `CCNC(=O)Nc1nc2cc(-c3ccc(C#N)nc3)cc(-c3ccccn3)c2s1` [Example 33, 1-[5-(6-Cyano-pyridin-3-yl)-7-pyridin-2-yl-benzothiazol-2-yl]-3-ethyl-urea]: the MIC is less than 0.25 µg/mL.

Turning to `CCNC(=O)Nc1nc2cc(-c3ccc(CO)nc3)cc(-c3ccccn3)c2s1` [Example 34, 1-Ethyl-3-[5-(6-hydroxymethyl-pyridin-3-yl)-7-pyridin-2-yl-benzothiazol-2-yl]-urea], the MIC is less than 0.25 µg/mL.

Take `CCNC(=O)Nc1nc2cc(-c3cncnc3)cc(-c3ccccn3)c2s1` [Example 35, 1-Ethyl-3-(7-pyridin-2-yl-5-pyrimidin-5-yl-benzothiazol-2-yl)-urea]: the MIC was less than 0.25 µg/mL.

For the compound `CCNC(=O)Nc1nc2cc(-c3cncc(C)c3)cc(-c3ccccn3)c2s1` [Example 36, 1-Ethyl-3-[5-(5-methyl-pyridin-3-yl)-7-pyridin-2-yl-benzothiazol-2-yl]-urea], the MIC was less than 0.25 µg/mL.

Consider `CCNC(=O)Nc1nc2cc(-c3ccoc3)cc(-c3ccccn3)c2s1` [Example 37, 1-Ethyl-3-(5-furan-3-yl-7-pyridin-2-yl-benzothiazol-2-yl)-urea], for which the MIC lay in the range of 0.25 to 1 µg/mL (≈ 0.686 to 2.74 µM).

On to `CCNC(=O)Nc1nc2cc(-c3ccc(N(C)C)nc3)cc(-c3ccccn3)c2s1` [Example 38, 1-[5-(6-Dimethylamino-pyridin-3-yl)-7-pyridin-2-yl-benzothiazol-2-yl]-3-ethyl-urea], for which the MIC lay in the range of 0.25 to 1 µg/mL (≈ 0.597 to 2.39 µM).

`CCNC(=O)Nc1nc2cc(-c3cnccc3C)cc(-c3ccccn3)c2s1` [Example 39, 1-Ethyl-3-[5-(4-methyl-pyridin-3-yl)-7-pyridin-2-yl-benzothiazol-2-yl]-urea]: the MIC was 0.25 to 1 µg/mL (≈ 0.642 to 2.57 µM).

Turning to `CCNC(=O)Nc1nc2cc(-c3ccnc(OC)c3)cc(-c3ccccn3)c2s1` [Example 40, 1-Ethyl-3-[5-(2-methoxy-pyridin-4-yl)-7-pyridin-2-yl-benzothiazol-2-yl]-urea], the MIC fell in the range of 0.25 to 1 µg/mL (≈ 0.617 to 2.47 µM).

For `CCNC(=O)Nc1nc2cc(-c3ccc(C)nc3)cc(-c3ccccn3)c2s1` [Example 41, 1-Ethyl-3-[5-(6-methyl-pyridin-3-yl)-7-pyridin-2-yl-benzothiazol-2-yl]-urea], the MIC is less than 0.25 µg/mL.

In the case of `CCNC(=O)Nc1nc2cc(-c3cccnc3)cc(-c3cnc(N)nc3)c2s1` [Example 42, 1-[7-(2-Amino-pyrimidin-5-yl)-5-pyridin-3-yl-benzothiazol-2-yl]-3-ethyl-urea], the MIC is 0.25 to 1 µg/mL (≈ 0.639 to 2.55 µM).

Values taken from patent US8481544B2, “Antibacterial compositions” (Biota Europe Limited, priority 2006, dated 2013).
